We go through 32 compounds from US8906904B2, “Alkoxy pyrazoles as soluble guanylate cyclase activators” (Boehringer Ingelheim International GmbH, priority 2012, dated 2014).

Values after ≈ are worked out from the molar mass of the structure shown. Bounds are passed on as bounds.

This data set in a line: Assessment of solubility (McIlvaine buffers, 24 h shake, UPLC-UV). The format is physicochemical. Conditions: kinetic from dmso stock. As to the method:
Solubility is measured by the following method.
100 uL, 10 mM DMSO stock solution of each compound is prepared in a 96 well plate format. The experiment is done in single determination at 3 pH values (2.2, 4.5 and 6.8). For each pH and one reference, 40 uL of each compound is needed.
McIlvaine pH 2.2: To 2.076 g citric acid monohydrate and 0.043 g Na2HPO4×2H2O add 100 ml deionized water
McIlvaine pH 4.5: To 1.166 g citric acid monohydrate and 1.585 g Na2HPO4×2H2O add 100 ml deionized water
McIlvaine pH 6.8: To 0.476 g citric acid monohydrate and 2.753 g Na2HPO4×2H2O add 100 ml deionized water
With a suitable liquid handling device (Multipette® or a liquid handler) 390 uL of each buffer solution and 10 uL of compound is added to each well of a 96 deep well plate. The plates are covered firmly and shaken for 24 h on an over head shaker (at 54 RPM) at room temperature. The DMSO content in the final buffer is 2.5% v/v.
After 24 h the plates are centrifuged to remove droplets on the lid before opening (for ˜5 min at 2500 RPM).
The filtration is done under vacuum with Millipore 96 well filter plate. Filtrate is collected in a deep well plate and transferred to a suitable plate for UPLC analysis.
The reference plate is prepared by adding 10 uL of compound to 390 uL of 50:50 acetonitrile/water in a 96 deep well plate and transferred to a suitable plate for UPLC analysis. Wells are checked visually for precipitation, any presence noted under comments in reported results.
The samples are measured with UPLC-UV using the chromatographic method described below.
Waters Empower®2 software is used for generating Sample Sets (according to the plate layout), Sample Set Methods and Instrument Methods.
One Sample Set comprises the methods for three 96 well plates (one reference plate and two sample plates, and includes one Sample Set Method and one Instrument Method).
3. Data Processing and Analysis
The UV chromatograms collected at 254 nm are integrated and processed.
It is assumed that the compound is completely dissolved in the reference solution (50:50 acetonitrile/water)

The solubility is how much of the substance goes into solution per volume. High values mean much dissolved substance, low ones little dissolved substance.

For `CCOc1c(C(=O)O)cnn1-c1cccc(-c2cccc(C)c2OCc2ccc3c(c2C)CCN([C@@H]2CCOC2)C3)n1` [Compound 126], the solubility at 24 h was found to be 96 µg/mL (≈ 169 µM) (pH 2.2, aqueous buffer); 74 µg/mL (≈ 130 µM) (pH 4.5, aqueous buffer); 78 µg/mL (≈ 137 µM) (pH 6.8, aqueous buffer).
As to `CCOc1c(C(=O)O)cnn1-c1cccc(-c2cccc(C)c2OCc2ccc3c(c2C)CCN([C@@H]2CCCOC2)C3)n1` [Compound 128], the solubility at 24 h came out at 93 µg/mL (≈ 160 µM) (pH 2.2, aqueous buffer); 77 µg/mL (≈ 132 µM) (pH 4.5, aqueous buffer); 78 µg/mL (≈ 134 µM) (pH 6.8, aqueous buffer).
Take `CCOc1c(C(=O)O)cnn1-c1cccc(-c2cccc(C)c2OCc2ccc3c(c2C)CCN([C@H]2CCCOC2)C3)n1` [Compound 129]: the solubility at 24 h runs as follows: (pH 2.2, aqueous buffer) 95 µg/mL (≈ 163 µM); (pH 4.5, aqueous buffer) 79 µg/mL (≈ 136 µM); (pH 6.8, aqueous buffer) 79 µg/mL (≈ 136 µM).
For `COc1c(C(=O)O)cnn1-c1cccc(-c2cccc(C)c2OCc2ccc3c(c2)OCCN(C2CCOCC2)C3)n1` [Compound 130], the solubility at 24 h was 130 µg/mL (≈ 228 µM) (pH 2.2, aqueous buffer); 100 µg/mL (≈ 175 µM) (pH 4.5, aqueous buffer); 110 µg/mL (≈ 193 µM) (pH 6.8, aqueous buffer).
In the case of `CCOc1c(C(=O)O)cnn1-c1cccc(-c2cccc(C)c2OCc2ccc3c(c2)OCCN(C2CCOCC2)C3)n1` [Compound 131], the solubility at 24 h is, setting by setting: (pH 2.2, aqueous buffer) 130 µg/mL (≈ 222 µM); (pH 4.5, aqueous buffer) 97 µg/mL (≈ 166 µM); (pH 6.8, aqueous buffer) 110 µg/mL (≈ 188 µM).
In the same order, the values of `CCCOc1c(C(=O)O)cnn1-c1cccc(-c2cccc(C)c2OCc2ccc3c(c2C)CCN(C2CCOCC2)C3)n1` [Compound 133] are 120 µg/mL (≈ 201 µM), 99 µg/mL (≈ 166 µM) and 100 µg/mL (≈ 168 µM).
As to `Cc1cccc(-c2cccc(-n3ncc(C(=O)O)c3OCC(C)C)n2)c1OCc1ccc2c(c1C)CCN(C1CCOCC1)C2` [Compound 134], the solubility at 24 h is, setting by setting: (pH 2.2, aqueous buffer) 110 µg/mL (≈ 180 µM); (pH 4.5, aqueous buffer) 94 µg/mL (≈ 154 µM); (pH 6.8, aqueous buffer) 100 µg/mL (≈ 164 µM).
With `CC[C@H](C)Oc1c(C(=O)O)cnn1-c1cccc(-c2cccc(C)c2OCc2ccc3c(c2C)CCN(C2CCCOC2)C3)n1` (stereo partly drawn) [Compound 135], the solubility at 24 h is 110 µg/mL (≈ 180 µM) (pH 2.2, aqueous buffer); 97 µg/mL (≈ 159 µM) (pH 4.5, aqueous buffer); 100 µg/mL (≈ 164 µM) (pH 6.8, aqueous buffer).
In the same order, the values of `CC[C@H](C)Oc1c(C(=O)O)cnn1-c1cccc(-c2cccc(C)c2OCc2ccc3c(c2C)CCN(C2CCOCC2)C3)n1` [Compound 136] are 120 µg/mL (≈ 196 µM), 100 µg/mL (≈ 164 µM) and 110 µg/mL (≈ 180 µM).
In the same order, the values of `CC[C@H](C)Oc1c(C(=O)O)cnn1-c1cccc(-c2cccc(C)c2OCc2ccc3c(c2C)CCN(C2CCOC2)C3)n1` (stereo partly drawn) [Compound 137] are 110 µg/mL (≈ 184 µM), 98 µg/mL (≈ 164 µM) and 110 µg/mL (≈ 184 µM).
In the same order, the values of `COc1c(C(=O)O)cnn1-c1cccc(-c2cccc(C)c2OCc2ccc3c(c2C)CCN(C[C@@H]2COCCO2)C3)n1` [Compound 139] are 130 µg/mL (≈ 222 µM), 110 µg/mL (≈ 188 µM) and 120 µg/mL (≈ 205 µM).
Regarding `COc1c(C(=O)O)cnn1-c1cccc(-c2cccc(C)c2OCc2ccc3c(c2C)CCN([C@@H]2CCCOC2)C3)n1` [Compound 140], the solubility at 24 h reads like this: (pH 2.2, aqueous buffer) 140 µg/mL (≈ 246 µM); (pH 4.5, aqueous buffer) 120 µg/mL (≈ 211 µM); (pH 6.8, aqueous buffer) 120 µg/mL (≈ 211 µM).
For `COc1c(C(=O)O)cnn1-c1cccc(-c2cccc(C)c2OCc2ccc3c(c2C)CCN([C@H]2CCCOC2)C3)n1` [Compound 141], the solubility at 24 h is, setting by setting: (pH 2.2, aqueous buffer) 130 µg/mL (≈ 229 µM); (pH 4.5, aqueous buffer) 110 µg/mL (≈ 193 µM); (pH 6.8, aqueous buffer) 110 µg/mL (≈ 193 µM).
In the case of `COc1c(C(=O)O)cnn1-c1cccc(-c2cccc(C)c2OCc2ccc3c(c2C)CCN(C[C@H]2COCCO2)C3)n1` [Compound 142], the concentration in solution (pH 2.2, aqueous buffer) (solubility at 24 h) was 120 µg/mL (≈ 205 µM); the solubility at 24 h (pH 4.5, aqueous buffer) was 87 µg/mL (≈ 149 µM); the solubility at 24 h (pH 6.8, aqueous buffer) was 93 µg/mL (≈ 159 µM).
On the same counts, the results for `COc1c(C(=O)O)cnn1-c1cccc(-c2cccc(C)c2OCc2cc3c(cc2C)CN(C2CCOCC2)C3)n1` [Compound 143] are 160 µg/mL (≈ 288 µM), 150 µg/mL (≈ 270 µM) and 160 µg/mL (≈ 288 µM).
Consider `CC(C)Oc1c(C(=O)O)cnn1-c1cccc(-c2ccccc2OCc2ccc3c(c2)CCN(C2CCOCC2)C3)n1` [Compound 144], for which the solubility at 24 h was determined as 110 µg/mL (≈ 193 µM) (pH 2.2, aqueous buffer); 89 µg/mL (≈ 157 µM) (pH 4.5, aqueous buffer); 93 µg/mL (≈ 164 µM) (pH 6.8, aqueous buffer).
As to `COc1c(C(=O)O)cnn1-c1cccc(-c2cccc(C)c2OCc2cc(C)c3c(c2C)CN(C2CCOCC2)C3)n1` [Compound 145], the solubility at 24 h came out at 110 µg/mL (≈ 193 µM) (pH 2.2, aqueous buffer); 92 µg/mL (≈ 162 µM) (pH 4.5, aqueous buffer); 94 µg/mL (≈ 165 µM) (pH 6.8, aqueous buffer).
In the same order, the values of `CCOc1c(C(=O)O)cnn1-c1cccc(-c2cccc(C)c2OCc2ccc3c(c2C)CCN(CC2CCCOC2)C3)n1` (stereo not drawn) [Compound 146] are 100 µg/mL (≈ 168 µM), 88 µg/mL (≈ 147 µM) and 79 µg/mL (≈ 132 µM).
For the compound `CCOc1c(C(=O)O)cnn1-c1cccc(-c2cccc(C)c2OCc2ccc3c(c2C)CCN(C(=O)C2CCOCC2)C3)n1` [Compound 147, 5-Ethoxy-1-(6-{3-methyl-2-[5-methyl-2-(tetrahydro-pyran-4-carbonyl)-1,2,3,4-tetrahydro-isoquinolin-6-ylmethoxy]-phenyl}-pyridin-2-yl)-1H-pyrazole-4-carboxylic acid], the solubility at 24 h turned out to be 1.2 µg/mL (≈ 1.96 µM) (pH 2.2, aqueous buffer); 3.1 µg/mL (≈ 5.08 µM) (pH 4.5, aqueous buffer); 75 µg/mL (≈ 123 µM) (pH 6.8, aqueous buffer).
With `COCCOc1c(C(=O)O)cnn1-c1cccc(-c2cccc(C)c2OCc2ccc3c(c2C)CCN(C2CCCOC2)C3)n1` (stereo not drawn) [Compound 149], the solubility at 24 h by setting is: (pH 2.2, aqueous buffer) 110 µg/mL (≈ 180 µM); (pH 4.5, aqueous buffer) 78 µg/mL (≈ 127 µM); (pH 6.8, aqueous buffer) 81 µg/mL (≈ 132 µM).
In the case of `COCCOc1c(C(=O)O)cnn1-c1cccc(-c2cccc(C)c2OCc2ccc3c(c2C)CCN(C2CCOC2)C3)n1` (stereo not drawn) [Compound 150], the solubility at 24 h is 100 µg/mL (≈ 167 µM) (pH 2.2, aqueous buffer); 67 µg/mL (≈ 112 µM) (pH 4.5, aqueous buffer); 78 µg/mL (≈ 130 µM) (pH 6.8, aqueous buffer).
In the case of `COCCOc1c(C(=O)O)cnn1-c1cccc(-c2cccc(C)c2OCc2ccc3c(c2C)CCN(C2CCOCC2)C3)n1` [Compound 151], the solubility at 24 h amounted to 110 µg/mL (≈ 180 µM) (pH 2.2, aqueous buffer); 98 µg/mL (≈ 160 µM) (pH 4.5, aqueous buffer); 85 µg/mL (≈ 139 µM) (pH 6.8, aqueous buffer).
In the same order, the values of `CCOc1c(C(=O)O)cnn1-c1cccc(-c2cccc(C)c2OCc2ccc3c(c2C)CCN(C[C@@H]2CCCOC2)C3)n1` [Compound 152] are 97 µg/mL (≈ 163 µM), 74 µg/mL (≈ 124 µM) and 74 µg/mL (≈ 124 µM).
In the same order, the values of `CCOc1c(C(=O)O)cnn1-c1cccc(-c2cccc(C)c2OCc2ccc3c(c2C)CCN(C[C@H]2CCCOC2)C3)n1` [Compound 153] are 87 µg/mL (≈ 146 µM), 67 µg/mL (≈ 112 µM) and 65 µg/mL (≈ 109 µM).
On the same counts, the results for `CCOc1c(C(=O)O)cnn1-c1cccc(-c2cccc(C)c2OCc2ccc3c(c2CC)CCN(C2CCOCC2)C3)n1` [Compound 154] are 85 µg/mL (≈ 142 µM), 36 µg/mL (≈ 60.3 µM) and 57 µg/mL (≈ 95.5 µM).
Turning to `CCOc1c(C(=O)O)cnn1-c1cccc(-c2cccc(C)c2OCc2ccc3c(c2C)CCN(C2COC(C)(C)OC2)C3)n1` [Compound 155], the solubility at 24 h runs as follows: (pH 2.2, aqueous buffer) 60 µg/mL (≈ 97.9 µM); (pH 4.5, aqueous buffer) 66 µg/mL (≈ 108 µM); (pH 6.8, aqueous buffer) 73 µg/mL (≈ 119 µM).
On the same counts, the results for `CCOc1c(C(=O)O)cnn1-c1cccc(-c2cccc(C)c2OCc2cc3c(c(C(F)(F)F)c2)CN(C2CCOCC2)CC3)n1` [Compound 157] are 94 µg/mL (≈ 148 µM), 70 µg/mL (≈ 110 µM) and 62 µg/mL (≈ 97.4 µM).
On the same counts, the results for `COc1c(C(=O)O)cnn1-c1cccc(-c2cccc(C)c2OCc2cc3c(c(C(F)(F)F)c2)CN(C2CCOCC2)CC3)n1` [Compound 158] are 64 µg/mL (≈ 103 µM), 43 µg/mL (≈ 69.1 µM) and 41 µg/mL (≈ 65.8 µM).
Regarding `CCOc1c(C(=O)O)cnn1-c1cccc(-c2cccc(C)c2OCc2ccc3c(c2F)CCN(C2CCOCC2)C3)n1` [Compound 159], the solubility at 24 h reads like this: (pH 2.2, aqueous buffer) 86 µg/mL (≈ 147 µM); (pH 4.5, aqueous buffer) 55 µg/mL (≈ 93.8 µM); (pH 6.8, aqueous buffer) 51 µg/mL (≈ 86.9 µM).
On the same counts, the results for `COc1c(C(=O)O)cnn1-c1cccc(-c2cccc(C)c2OCc2ccc3c(c2C)CCN(S(C)(=O)=O)C3)n1` [Compound 160] are less than 0.1 µg/mL, 0.93 µg/mL (≈ 1.65 µM) and 73 µg/mL (≈ 130 µM).
`Cc1cc(COc2c(C)cccc2-c2cccc(-n3ncc(C(=O)O)c3OC(C)C)n2)cc2c1CN(C1CCOCC1)CC2` [Compound 161] showed a solubility at 24 h (pH 2.2, aqueous buffer) of 110 µg/mL (≈ 184 µM); a solubility at 24 h (pH 4.5, aqueous buffer) of 91 µg/mL (≈ 152 µM); a solubility at 24 h (pH 6.8, aqueous buffer) of 97 µg/mL (≈ 163 µM).
Regarding `CCOc1c(C(=O)O)cnn1-c1cccc(-c2cccc(C)c2OCc2ccc3c(c2C)CCN(C2CCOCC2)CC3)n1` [Compound 162], the solubility at 24 h runs as follows: (pH 2.2, aqueous buffer) 100 µg/mL (≈ 168 µM); (pH 4.5, aqueous buffer) 83 µg/mL (≈ 139 µM); (pH 6.8, aqueous buffer) 82 µg/mL (≈ 137 µM).
